# According to patent US20260216164A1, “INDOLE COMPOUND DECOMPOSING IKZF2, AND USE THEREOF” (KOREA RESEARCH INSTITUTE OF CHEMICAL TECHNOLOGY, priority 2023, published 2026):
# Tests used:
# Helios (IKZF2) = Helios (IKZF2) (Homo sapiens, UniProt Q96SW2+Q9UKS7); experiment: Screening of Helios protein degraders using Nano-Glo HiBiT cell line (HiBiT-IKZF2); format: cell-based; details: 6 hours, HiBiT-Helios knock-in Jurkat cells; for remaining activity at 10 µM: compound 10 μM, read-out: HiBiT-IKZF2 Residual amount of Helios (%) 10 μM; for remaining activity at 1 µM: compound 1 μM, read-out: HiBiT-IKZF2 Residual amount of Helios (%) 1 μM
# Protocol: To observe intracellular degradation of Helios, the Nano-Glo HiBiT detection system (Promega) was employed. […] The cells expressing Helios fused with HiBiT were validated using the Nano-Glo HiBiT detection system (Promega) according to a predetermined protocol, isolated as single cells, and cultured in complete medium to establish a monoclonal cell line.
# After 6 hours, the Nano-Glo HiBiT detection reagent was added to each well in an equal volume to the cell culture medium and incubated at room temperature for 10 minutes. Following incubation, the HiBiT luminescence signal was measured using a microplate reader (Perkin Elmer).
# IKZF2 (Helios) = IKZF2 (Helios) (Homo sapiens, UniProt Q96SW2+Q9UKS7); experiment: Screening of DC50 (nM) and Dmax (%) using WB-IKZF2 cell line (Western blot); format: cell-based; design: endogenous in cells; details: 6 hours; for DC50: class symbols, read-out: WB-IKZF2 DC 50
# Protocol: Experimental Example 2. Screening of DC50 (nM) and Dmax (%) Using WB-IKZF2 Cell Line
# Candidate degraders were serially diluted and treated in cells cultured in complete medium, followed by incubation for 6 hours at 37° C. in a CO2 incubator. After 6 hours, the cells were harvested and lysed in RIPA buffer (150 mM NaCl, 1% Triton X-100, 1% sodium deoxycholate, 0.1% SDS, 50 mM Tris-HCl pH 7.5, and 2 mM EDTA) containing a protease inhibitor cocktail (Roche). The mixture was vortexed every 10 minutes and incubated on ice for 30 minutes, followed by centrifugation at 13,000 rpm for 10 minutes at 4° C. to isolate proteins. The isolated proteins were quantified using the Bradford assay (Bio-Rad, 5000006). Proteins were separated on 8% SDS-polyacrylamide gel, transferred onto nitrocellulose membranes (Amersham, 10600002), and incubated with primary antibodies at 4° C. for 18 hours. The following primary antibodies were used: anti-Helios rabbit monoclonal antibody (Cell Signaling, 42427, 1:3000) and anti-β-actin mouse monoclonal antibody (Santa Cruz, sc-47778, 1:5000). β-actin was used as a loading control. The next day, the membranes were washed with 1×TBST for 30 minutes and incubated with HRP-conjugated secondary antibodies corresponding to the primary antibodies at room temperature for 1 hour. The following secondary antibodies were used: anti-mouse IgG HRP-linked antibody (Sigma, A9044, 1:5000) and anti-rabbit IgG HRP-linked antibody (Cell Signaling, 7074, 1:5000). After washing with 1×TBST for 30 minutes, protein expression was visualized using the Pierce ECL Western blotting substrate (Thermo Fisher, 32106), and images were captured using a chemiluminescence image analysis system (GE Healthcare, AI680). The obtained images were quantified using the ImageJ software.
# Chain of IKZF2 (Helios) (Q9UKS7 whole entry): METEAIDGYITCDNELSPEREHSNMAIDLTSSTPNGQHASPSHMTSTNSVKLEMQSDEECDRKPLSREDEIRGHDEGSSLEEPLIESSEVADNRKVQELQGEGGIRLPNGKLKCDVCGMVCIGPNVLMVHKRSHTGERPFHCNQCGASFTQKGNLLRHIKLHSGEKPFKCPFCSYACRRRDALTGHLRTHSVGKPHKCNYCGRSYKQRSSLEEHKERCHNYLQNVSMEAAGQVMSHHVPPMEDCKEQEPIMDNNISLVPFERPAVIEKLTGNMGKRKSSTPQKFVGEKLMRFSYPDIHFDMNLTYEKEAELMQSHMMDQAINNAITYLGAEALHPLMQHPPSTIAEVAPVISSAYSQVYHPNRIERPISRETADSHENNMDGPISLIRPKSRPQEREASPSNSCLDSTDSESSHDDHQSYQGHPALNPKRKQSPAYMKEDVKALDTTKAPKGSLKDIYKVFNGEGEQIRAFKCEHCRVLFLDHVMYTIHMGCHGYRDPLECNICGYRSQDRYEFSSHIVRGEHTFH
# Chain of IKZF2 (Helios) (Q96SW2 whole entry): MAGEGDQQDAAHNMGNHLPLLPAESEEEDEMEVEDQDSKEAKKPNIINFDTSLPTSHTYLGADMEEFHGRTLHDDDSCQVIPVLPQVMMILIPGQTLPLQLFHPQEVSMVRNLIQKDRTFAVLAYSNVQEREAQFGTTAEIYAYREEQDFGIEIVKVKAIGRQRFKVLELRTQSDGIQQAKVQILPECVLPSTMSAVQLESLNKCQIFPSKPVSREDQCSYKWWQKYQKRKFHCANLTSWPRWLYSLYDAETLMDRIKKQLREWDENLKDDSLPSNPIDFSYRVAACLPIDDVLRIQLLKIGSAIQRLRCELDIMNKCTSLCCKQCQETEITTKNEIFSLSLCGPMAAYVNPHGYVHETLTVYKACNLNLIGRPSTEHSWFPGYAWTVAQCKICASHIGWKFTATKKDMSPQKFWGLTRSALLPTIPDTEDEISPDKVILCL
# Chain of IKZF2 (Helios) (Q16531 whole entry partner): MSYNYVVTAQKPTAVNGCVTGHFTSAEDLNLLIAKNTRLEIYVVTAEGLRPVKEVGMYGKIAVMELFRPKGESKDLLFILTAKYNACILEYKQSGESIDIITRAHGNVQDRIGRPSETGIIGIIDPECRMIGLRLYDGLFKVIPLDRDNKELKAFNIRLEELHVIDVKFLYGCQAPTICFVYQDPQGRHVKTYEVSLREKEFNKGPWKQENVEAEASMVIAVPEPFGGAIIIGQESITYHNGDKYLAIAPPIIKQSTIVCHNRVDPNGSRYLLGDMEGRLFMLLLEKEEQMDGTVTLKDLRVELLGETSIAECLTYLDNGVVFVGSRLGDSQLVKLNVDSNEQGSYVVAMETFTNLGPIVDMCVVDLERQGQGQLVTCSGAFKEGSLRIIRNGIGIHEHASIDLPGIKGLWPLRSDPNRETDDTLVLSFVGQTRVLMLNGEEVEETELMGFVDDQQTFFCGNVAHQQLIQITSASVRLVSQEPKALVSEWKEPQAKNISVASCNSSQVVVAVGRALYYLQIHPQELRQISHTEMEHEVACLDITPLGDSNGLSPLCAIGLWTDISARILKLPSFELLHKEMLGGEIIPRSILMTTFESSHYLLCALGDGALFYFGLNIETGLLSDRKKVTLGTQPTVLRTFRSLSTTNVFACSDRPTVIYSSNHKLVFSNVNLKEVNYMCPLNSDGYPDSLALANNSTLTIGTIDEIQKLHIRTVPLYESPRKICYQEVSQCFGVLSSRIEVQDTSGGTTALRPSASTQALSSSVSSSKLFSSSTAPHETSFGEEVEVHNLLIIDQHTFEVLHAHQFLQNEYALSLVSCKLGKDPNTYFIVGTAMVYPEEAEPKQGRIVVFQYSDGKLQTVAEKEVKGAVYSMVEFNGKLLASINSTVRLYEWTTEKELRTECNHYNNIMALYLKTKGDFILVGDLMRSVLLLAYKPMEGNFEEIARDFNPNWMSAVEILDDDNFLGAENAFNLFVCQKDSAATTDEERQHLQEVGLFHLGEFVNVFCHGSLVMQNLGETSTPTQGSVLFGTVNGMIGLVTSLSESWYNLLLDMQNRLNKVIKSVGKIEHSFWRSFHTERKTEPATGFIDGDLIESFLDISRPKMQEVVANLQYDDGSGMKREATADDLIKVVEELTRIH
# Chain of Helios (IKZF2) (Q9UKS7 whole entry, the tested form may be a part): as the sequence (Q9UKS7 whole entry) above
# Chain of Helios (IKZF2) (Q96SW2 whole entry, the tested form may be a part): as the sequence (Q96SW2 whole entry) above
# Chain of Helios (IKZF2) (Q16531 whole entry partner, the tested form may be a part): as the sequence (Q16531 whole entry partner) above
remaining activity at 10 µM (Helios (IKZF2)),remaining activity at 1 µM (Helios (IKZF2)),Dmax (IKZF2 (Helios)),DC50 (IKZF2 (Helios)),SMILES
78.7%,–,–,–,"Cc1c(C(=O)N2CCC(c3ccc4c(c3)CN(C3CCC(=O)NC3=O)C4=O)C2)[nH]c2cc(Cl)ccc12 (centres unmarked) [Compound 67, 3-(5-(1-(6-chloro-3-methyl-1H-indole-2-carbonyl)pyrrolidin-3-yl)-1-oxoinsoindolin-2-yl)piperidine-2,6-dione]"
41.8%,22%,–,–,"Cc1ccc2c(C)c(C(=O)N3CCC(c4ccc5c(c4)CN(C4CCC(=O)NC4=O)C5=O)CC3)[nH]c2c1 (centres unmarked) [Compound 69, 3-(5-(1-(3,6-dimethyl-1H-indole-2-carbonyl)piperidin-4-yl)-1-oxoinsoindolin-2-yl)piperidine-2,6-dione]"
101%,94.8%,–,–,"Cc1c(C(=O)N2CC=C(c3ccc4c(c3)CN(C3CCC(=O)NC3=O)C4=O)CC2)[nH]c2cc(Cl)ccc12 (centres unmarked) [Compound 70, 3-(5-(1-(6-chloro-3-methyl-1H-indole-2-carbonyl)-1,2,3,6-tetrahydropyridin-4-yl)-1-oxoinsoindolin-2-yl)piperidine-2,6-dione]"
34.3%,43.3%,–,–,"Cc1c(C(=O)N2CCC(c3ccc4c(c3)CN(C3CCC(=O)NC3=O)C4=O)CC2)[nH]c2cc(Cl)c(Cl)cc12 (centres unmarked) [Compound 72, 3-(5-(1-(5,6-dichloro-3-methyl-1H-indole-2-carbonyl)piperidin-4-yl)-1-oxoinsoindolin-2-yl)piperidine-2,6-dione]"
27.8%,59.2%,–,–,"CC(=O)Nc1ccc2c(C)c(C(=O)N3CCC(c4ccc5c(c4)CN(C4CCC(=O)NC4=O)C5=O)CC3)[nH]c2c1 (centres unmarked) [Compound 73, N-(2-(4-(2-(2,6-dioxopiperidin-3-yl)-1-oxoindolin-5-yl)piperidine-1-carbonyl)-3-methyl-1H-indol-6-yl)acetamide]"
75.8%,73.2%,–,–,"Cc1c(C(=O)N2CCC(c3ccc4c(c3)CN(C3CCC(=O)NC3=O)C4=O)CC2)[nH]c2cc(NS(C)(=O)=O)ccc12 (centres unmarked) [Compound 74, N-(2-(4-(2-(2,6-dioxopiperidin-3-yl)-1-oxoindolin-5-yl)piperidine-1-carbonyl)-3-methyl-1H-indol-6-yl) methanesulfonamide]"
28.7%,–,–,–,"O=Cc1c(C(=O)N2CCC(c3ccc4c(c3)CN(C3CCC(=O)NC3=O)C4=O)CC2)[nH]c2cc(Cl)ccc12 (centres unmarked) [Compound 81, 6-chloro-2-(4-(2-(2,6-dioxopiperidin-3-yl)-1-oxoindolin-5-yl)piperidine-1-carbonyl)-1H-indole-3-carbaldehyde]"
49%,–,–,–,"Cc1c(C(=O)N2CCC(c3ccc4c(c3)CN(C3CCC(=O)NC3=O)C4=O)CC2)[nH]c2cc(Cl)c(Br)cc12 (centres unmarked) [Compound 83, 3-(5-(1-(5-bromo-6-chloro-3-methyl-1H-indole-2-carbonyl)piperidin-4-yl)-1-oxoinsoindolin-2-yl)piperidine-2,6-dione]"
36.1%,–,–,–,"Cc1c(C(=O)N2CCC(c3ccc4c(c3)C(=O)N(C3CCC(=O)NC3=O)C4=O)CC2)[nH]c2cc(Cl)ccc12 (centres unmarked) [Compound 92, 5-(1-(6-chloro-3-methyl-1H-indole-2-carbonyl)piperidin-4-yl)-2-(2,6-dioxopiperidin-3-yl)isoindoline-1,3-dione]"
11.4%,16.8%,–,–,"Cc1c(C(=O)N2CCC(c3ccc4c(c3)CN(C3CCC(=O)NC3=O)C4=O)CC2)[nH]c2c(C)c(Cl)ccc12 (centres unmarked) [Compound 100, 3-(5-(1-(6-chloro-3,7-dimethyl-1H-indole-2-carbonyl)piperidin-4-yl)-1-oxoinsoindolin-2-yl)piperidine-2,6-dione]"
20.6%,26.8%,–,–,"Cc1cc2c(C)c(C(=O)N3CCC(c4ccc5c(c4)CN(C4CCC(=O)NC4=O)C5=O)CC3)[nH]c2cc1Cl (centres unmarked) [Compound 103, 3-(5-(1-(6-chloro-3,5-dimethyl-1H-indole-2-carbonyl)piperidin-4-yl)-1-oxoinsoindolin-2-yl)piperidine-2,6-dione]"
8.5%,15.2%,–,–,"O=C1CCC(N2Cc3cc(C4CCN(C(=O)c5[nH]c6cc(Cl)ccc6c5CO)CC4)ccc3C2=O)C(=O)N1 (centres unmarked) [Compound 105, 3-(5-(1-(6-chloro-3-(hydroxymethyl)-1H-indole-2-carbonyl)piperidin-4-yl)-1-oxoinsoindolin-2-yl)piperidine-2,6-dione]"
33.6%,42.8%,–,–,"Cc1c(C(=O)N2CCC(c3ccc4c(c3)CN(C3CCC(=O)NC3=O)C4=O)CC2)[nH]c2cc(CN3CCNCC3)ccc12 (centres unmarked) [Compound 106, 3-(5-(1-(3-methyl-6-(piperazin-1-ylmethyl)-1H-indole-2-carbonyl)piperidin-4-yl)-1-oxoinsoindolin-2-yl)piperidine-2,6-dione dichloride]"
51.5%,56.6%,–,–,"Cc1c(C(=O)N2CCC(c3ccc4c(c3)CN(C3CCC(=O)NC3=O)C4=O)CC2)[nH]c2cc(Cl)cc(Cl)c12 (centres unmarked) [Compound 107, 3-(5-(1-(4,6-dichloro-3-methyl-1H-indole-2-carbonyl)piperidin-4-yl)-1-oxoinsoindolin-2-yl)piperidine-2,6-dione]"
24.6%,38.4%,–,–,"Cc1c(C(=O)N2CCC(c3ccc4c(c3)CN(C3CCC(=O)NC3=O)C4=O)CC2)[nH]c2cc(Cl)c(CN3CCNCC3)cc12 (centres unmarked) [Compound 109, 3-(5-(1-(6-chloro-3-methyl-5-(piperazin-1-ylmethyl)-1H-indole-2-carbonyl)piperidin-4-yl)-1-oxoinsoindolin-2-yl)piperidine-2,6-dione dichloride]"
–,14.2%,–,–,"COc1ccc2c(CN3CCOCC3)c(C(=O)N3CCC(c4ccc5c(c4)CN(C4CCC(=O)NC4=O)C5=O)CC3)[nH]c2c1 (centres unmarked) [Compound 110, 3-(5-(1-(6-methoxy-3-(morpholinomethyl)-1H-indole-2-carbonyl)piperidin-4-yl)-1-oxoinsoindolin-2-yl)piperidine-2,6-dione]"
–,31.8%,–,–,"CN1CCN(Cc2c(C(=O)N3CCC(c4ccc5c(c4)CN(C4CCC(=O)NC4=O)C5=O)CC3)[nH]c3cc(Cl)ccc23)CC1 (centres unmarked) [Compound 114, 3-(5-(1-(6-chloro-3-((4-methylpiperazin-1-yl)methyl)-1H-indole-2-carbonyl)piperidin-4-yl)-1-oxoinsoindolin-2-yl)piperidine-2,6-dione]"
–,–,96%,10 to 100 nM,"Cc1c(C(=O)N2CCC(c3ccc4c(c3F)CN(C3CCC(=O)NC3=O)C4=O)CC2)[nH]c2cc(N3CCOCC3)ccc12 (centres unmarked) [Compound 116, 3-(4-fluoro-5-(1-(3-methyl-6-morpholino-1H-indole-2-carbonyl)piperidin-4-yl)-1-oxoinsoindolin-2-yl)piperidine-2,6-dione]"
–,–,–,< 10 nM,"Cc1c(C(=O)N2CCC(c3ccc4c(c3F)CN(C3CCC(=O)NC3=O)C4=O)CC2)[nH]c2c(F)c(Cl)ccc12 (centres unmarked) [Compound 117, 3-(5-(1-(6-chloro-7-fluoro-3-methyl-1H-indole-2-carbonyl)piperidin-4-yl)-4-fluoro-1-oxoinsoindolin-2-yl)piperidine-2,6-dione]"
–,–,100%,< 10 nM,"Cc1c(C(=O)N2CCC(c3ccc4c(c3F)CN(C3CCC(=O)NC3=O)C4=O)CC2)[nH]c2cc(C#N)ccc12 (centres unmarked) [Compound 118, 2-(4-(2-(2,6-dioxopiperidin-3-yl)-4-fluoro-1-oxoindolin-5-yl)piperidine-1-carbonyl)-3-methyl-1H-indole-6-carbonitrile]"
11.2%,–,–,–,"Cc1c(C(=O)N2CCC(c3ccc4c(c3F)CN(C3CCC(=O)NC3=O)C4=O)CC2)[nH]c2c(F)c(C#N)ccc12 (centres unmarked) [Compound 122, 2-(4-(2-(2,6-dioxopiperidin-3-yl)-4-fluoro-1-oxoindolin-5-yl)piperidine-1-carbonyl)-7-fluoro-3-methyl-1H-indole-6-carbonitrile]"
14.3%,–,–,–,"Cc1c(C(=O)N2CCC(c3ccc4c(c3F)CN(C3CCC(=O)N(COC(=O)C(C)(C)C)C3=O)C4=O)CC2)[nH]c2cc(Cl)ccc12 (centres unmarked) [Compound 123, (3-(5-(1-(6-chloro-3-methyl-1H-indole-2-carbonyl)piperidin-4-yl)-4-fluoro-1-oxoinsoindolin-2-yl)-2,6-dioxopiperidin-1-yl)methyl pivalate]"
